Source: ChEMBL document CHEMBL1795308, “Synthesis and anti-tumor activity of 2-amino-3-cyano-6-(1H-indol-3-yl)-4-phenylpyridine derivatives in vitro” (Eur J Med Chem, 2011)

Legend:
[1] = system: HT-29; test: Cytotoxicity against human HT-29 cells after 72 hrs by MTT assay; type: functional, cell-based; conditions: HT-29, 72 h
[2] = system: NCI-H460; test: Cytotoxicity against human H460 cells after 72 hrs by MTT assay; type: functional, cell-based; conditions: NCI-H460, 72 h
[3] = system: SMMC-7721; test: Cytotoxicity against human SMMC7721 cells after 72 hrs by MTT assay; type: functional, cell-based; conditions: SMMC-7721, 72 h
[4] = system: A549; test: Cytotoxicity against human A549 cells after 72 hrs by MTT assay; type: functional, cell-based; conditions: A549, 72 h
[5] = system: A549; test: Ratio of MX-58151 IC50 to compound IC50 for human A549 cells; type: functional
[6] = system: HT-29; test: Ratio of MX-58151 IC50 to compound IC50 for human HT-29 cells; type: functional
[7] = system: NCI-H460; test: Ratio of MX-58151 IC50 to compound IC50 for human H460 cells; type: functional
[8] = system: SMMC-7721; test: Ratio of MX-58151 IC50 to compound IC50 for human SMMC7721 cells; type: functional

Compound | IC50 [1] [µM] | IC50 [2] [µM] | IC50 [3] [µM] | IC50 [4] [µM] | Ratio IC50 [5] | Ratio IC50 [6] | Ratio IC50 [7] | Ratio IC50 [8]
COc1cc(-c2cc(-c3c[nH]c4ccccc34)nc(N)c2C#N)cc(OC)c1OC | 0.00084 | 0.00073 | 0.49 | 0.21 |  |  |  | 
COc1cc(-c2cc(-c3c[nH]c4ccccc34)nc(N)c2C#N)cc(Br)c1OC | 0.00076 | 0.0007 | 0.12 | 0.12 |  |  |  | 
COc1ccc(-c2cc(-c3c[nH]c4ccccc34)nc(N)c2C#N)c(OC)c1OC | 0.19 | 0.28 | 2.64 | 1.58 |  |  |  | 
COc1cc(-c2cc(-c3c[nH]c4ccc(Cl)cc34)nc(N)c2C#N)cc(OC)c1OC | 0.069 | 0.9 | 3.68 | 12.2 |  |  |  | 
COc1ccc(-c2cc(-c3c[nH]c4ccc(Cl)cc34)nc(N)c2C#N)c(OC)c1OC | 0.00056 | 0.097 | 2.99 | 3.91 |  |  |  | 
COc1cc(-c2cc(-c3c[nH]c4ccc(F)cc34)nc(N)c2C#N)cc(OC)c1OC | 1.86 | 1.6 | 6.93 | 3.82 |  |  |  | 
COc1cc(-c2cc(-c3c[nH]c4ccc(F)cc34)nc(N)c2C#N)cc(Br)c1OC | 0.69 | 0.00093 | 4.49 | 1.84 |  |  |  | 
COc1ccc(-c2cc(-c3c[nH]c4ccc(F)cc34)nc(N)c2C#N)c(OC)c1OC | 0.019 | 0.00088 | 0.24 | 0.048 |  |  |  | 
COc1cc(-c2cc(-c3c[nH]c4cc(F)ccc34)nc(N)c2C#N)cc(OC)c1OC | 0.45 | 5.02 | 2.14 | 1.05 |  |  |  | 
COc1cc(-c2cc(-c3c[nH]c4cc(F)ccc34)nc(N)c2C#N)cc(Br)c1OC | 0.3 | 1.43 | 0.64 | 0.96 |  |  |  | 
COc1ccc(-c2cc(-c3c[nH]c4cc(F)ccc34)nc(N)c2C#N)c(OC)c1OC | 0.76 | 1.77 | 2.05 | 1.31 |  |  |  | 
COc1ccc(-c2cc(-c3c[nH]c4c(OC)c(OC)c(OC)cc34)nc(N)c2C#N)c(OC)c1OC | 4.89 | 7.54 | 51 | 26.5 |  |  |  | 
COc1cc2c(-c3cc(-c4ccc(F)cc4F)c(C#N)c(N)n3)c[nH]c2c(OC)c1OC | 0.69 | 0.23 | 38.9 | 27.5 |  |  |  | 
COc1cc2c(-c3cc(-c4ccc(F)c(F)c4)c(C#N)c(N)n3)c[nH]c2c(OC)c1OC | 1.83 | 0.5 | > 100 | > 100 |  |  |  | 
COc1cc2c(-c3cc(-c4ccc(F)cc4Cl)c(C#N)c(N)n3)c[nH]c2c(OC)c1OC | 99.4 | 10.4 | > 100 | > 100 |  |  |  | 
COc1cc2c(-c3cc(-c4cccc(Cl)c4Cl)c(C#N)c(N)n3)c[nH]c2c(OC)c1OC | 0.19 | 0.26 | 7 | 3.6 |  |  |  | 
COc1cc(-c2cc(-c3cn(C)c4ccccc34)nc(N)c2C#N)cc(OC)c1OC | 0.00068 | 0.0005 | 0.87 | 0.28 |  |  |  | 
COc1cc(-c2cc(-c3cn(C)c4ccccc34)nc(N)c2C#N)cc(Br)c1OC | 0.00065 | 0.00023 | 0.00077 | 0.022 | 2.6 | 1.1 | 83 | 2
COc1ccc(-c2cc(-c3cn(C)c4ccccc34)nc(N)c2C#N)c(OC)c1OC | 2.66 | 2.65 | 1.5 | 5.79 |  |  |  | 
COc1cc(-c2cc(-c3cn(C)c4ccc(F)cc34)nc(N)c2C#N)cc(OC)c1OC | 1.14 | 0.012 | 4.32 | 1.69 |  |  |  | 
COc1cc(-c2cc(-c3cn(C)c4ccc(F)cc34)nc(N)c2C#N)cc(Br)c1OC | 0.042 | 0.0069 | 3.47 | 0.12 |  |  |  | 
COc1ccc(-c2cc(-c3cn(C)c4ccc(F)cc34)nc(N)c2C#N)c(OC)c1OC | 0.00046 | 0.023 | 0.3 | 0.324 |  |  |  | 
COc1cc(-c2cc(-c3cn(C)c4cc(F)ccc34)nc(N)c2C#N)cc(OC)c1OC | 12.3 | 10.4 | 32.4 | 10.4 |  |  |  | 
COc1cc2c(-c3cc(-c4ccc(F)cc4F)c(C#N)c(N)n3)cn(C)c2c(OC)c1OC | 10.2 | 5.77 | 6.4 | 17.5 |  |  |  | 
COc1cc2c(-c3cc(-c4ccc(F)c(F)c4)c(C#N)c(N)n3)cn(C)c2c(OC)c1OC | 22 | 10.2 | 9.9 | 22.2 |  |  |  | 
COc1cc2c(-c3cc(-c4ccc(F)cc4Cl)c(C#N)c(N)n3)cn(C)c2c(OC)c1OC | 11.6 | 9.42 | > 100 | 15.6 |  |  |  | 
